Entries after “also recorded” stand apart in the source; their conditions may differ.

This data set can be described thus: Safety/tolerability: AE, ADR, DLT in patients with advanced cancer. The format is in vivo. From the text: This was a multicenter, uncontrolled, open-label, dose-escalation study on DEBIO1143 in patients with advanced cancer. It employed an accelerated titration design for dose escalation with 100 % dose increments in consecutively enrolled single patients until drug-related grade-2 toxicity was observed during the initial treatment cycle (until day 28 or day 21 as per protocol amendment). If this was the case, cohort size was expanded to three patients and dosing increment was reduced to 50 % of the last dose. Dose escalation was to be stopped at the MTD which was considered exceeded if at any dose level more than one patient experienced dose-limiting toxicity (DLT) during the first treatment cycle. DLT was defined as any of the following: (a) non-hematological toxicity of grade ≥3 (excluding nausea, vomiting, diarrhea unless not controlled by maximal antiemetic/diarrheal therapy for >24 h); (b) anemia or neutropenia of grade ≥3 or thrombocytopenia of grade 4 or any grade if associated with clinically significant bleeding; (c) any AE resulting in dose delay or reduction; (d) any toxicity considered dose-limiting by the investigator. If only one out of the three patients of a cohort experienced drug-related DLT, the cohort was expanded by another three patients to be treated at the same dose level. If none of these additional patients experienced DLT, the dose escalation by 50 %, rounded down to the nearest capsule strength combination, continued in the next cohort of three patients.
The incidence of AE, ADR, and DLT was recorded at all scheduled visits (on days 1, 15, and 28 of each cycle and additionally on days 5, 8, and 22 of cycle 1) and graded according to the Common Terminology Criteria for Adverse Events, version 4.0 of the National Cancer Institute. Moreover, safety laboratory, 12-lead ECG, vital sign measurements, and physical examinations were performed.

Consider `CN[C@@H](C)C(=O)N[C@H]1CN(C(=O)CC(C)C)CC[C@H]2CC[C@@H](C(=O)NC(c3ccccc3)c3ccccc3)N2C1=O` [DEBIO1143], for which, for the setting “N=31”, the “Deaths during the study” value is “No patient died”. Besides, under “human, in vivo”, the “Dose dependence of AEs” value is listed as “neither incidence nor severity increased with dose”, the Dose-limiting toxicity observed entry is recorded as “grade 3 reversible ALT elevation”, the “Grade 4–5 treatment-related AE” value is “no grade 4–5 treatment-related AE” and the “Number of AEs” value is given as 242. Moreover, where the note is “human, in vivo”, the “Number of SAEs” value is 13; the “Number of dose-limiting toxicities (DLT)” value was “one”; the “SAEs related to study drug” value is recorded as “none of which was considered related to study drug”; the “Safety laboratory, ECG, vital signs, body weight, ECOG performance status” value is on record as “No clinically meaningful trends”. Moreover, the “Maximum tolerated dose (MTD)” value (oral, days 1–5 every 2 or 3 weeks, up to 900 mg) is “No MTD was found; also recorded: not reached”.
